Experimental data from BindingDB's records for doi:10.1021/jm00365a017 (1983).

Target: Delta-type opioid receptor (Mus musculus) (UniProt P32300)
Test: Ability to induce 50% of maximal effect in mouse vas deferens expressing Opioid receptor delta 1

Sequence of Delta-type opioid receptor (Mus musculus) (P32300 whole entry, looked up): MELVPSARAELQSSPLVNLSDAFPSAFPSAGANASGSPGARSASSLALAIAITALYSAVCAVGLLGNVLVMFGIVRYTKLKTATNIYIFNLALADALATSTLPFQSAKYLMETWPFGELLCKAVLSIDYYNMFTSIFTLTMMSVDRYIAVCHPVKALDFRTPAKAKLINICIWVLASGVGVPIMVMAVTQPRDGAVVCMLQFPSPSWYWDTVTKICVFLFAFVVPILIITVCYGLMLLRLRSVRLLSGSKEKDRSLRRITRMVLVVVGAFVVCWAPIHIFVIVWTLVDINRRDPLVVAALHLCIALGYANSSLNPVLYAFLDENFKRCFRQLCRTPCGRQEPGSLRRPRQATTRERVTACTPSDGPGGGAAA

CC1C2Cc3ccc(O)cc3C1(C)CCN2CCc1ccccc1 (stereo unspecified)
IC50: 8 nM
